Measurements published in patent US8487091B2, “Substituted cyclopentanes having prostaglandin activity” (Allergan, Inc., priority 2008, dated 2013).
“And” between values parts separate entries of the source, which are not always exact repeats. Equal values may be shown once.

Tests used:
EP2 [1] = molecular target: T1, EP2 (Homo sapiens, UniProt P43116); test: EP2 cAMP functional assay; format: cell-based
From the text: (§1) United States Patent Application Publication No. 20070129552, describes the methods used to obtain the in vitro data in Table 1 below. The part of that reference which describes the method is incorporated by reference herein.

EP2 [2] = molecular target: T1, EP2; test: EP2 binding assay
From the text: as §1

T1 sequence (P43116 whole entry): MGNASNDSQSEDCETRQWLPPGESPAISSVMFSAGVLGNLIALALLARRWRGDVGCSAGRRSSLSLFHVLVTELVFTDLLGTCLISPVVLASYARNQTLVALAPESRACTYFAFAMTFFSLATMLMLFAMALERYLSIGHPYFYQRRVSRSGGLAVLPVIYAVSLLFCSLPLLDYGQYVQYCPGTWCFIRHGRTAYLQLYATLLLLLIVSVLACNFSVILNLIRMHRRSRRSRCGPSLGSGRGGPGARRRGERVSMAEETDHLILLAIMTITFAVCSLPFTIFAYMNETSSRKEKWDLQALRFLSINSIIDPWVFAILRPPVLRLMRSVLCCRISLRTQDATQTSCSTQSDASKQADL

SMILES | EC50 (EP2 [1]) | Ki (EP2 [2])
CCC1(C(O)C/C=C/[C@@H]2[C@@H](CCCc3ccc(C(=O)O)s3)CC[C@H]2Cl)CCC1 (stereo partly shown) [Compound 10] | 17 nM and 7 nM | 31 nM and 16 nM
CCC1(C(O)C/C=C/C2=CCC[C@@H]2CCCc2ccc(C(=O)O)s2)CCC1 (stereo partly shown) [Compound 16] | 32 nM | 17 nM
CCC1(C(O)CCCC2C(C#N)CCC2CCCc2ccc(C(=O)O)s2)CCC1 (stereo not shown) [Compound 22] | 18 nM | 123 nM
CCC1(C(O)C/C=C/[C@@H]2[C@@H](CCCc3ccc(C(=O)O)s3)CC[C@@H]2F)CCC1 (stereo partly shown) [Compound 35] | 23 nM | 36 nM
CCC1(C(O)CCC[C@@H]2[C@@H](CCCc3ccc(C(=O)O)s3)CC[C@@H]2F)CCC1 (stereo partly shown) [Compound 37] | 19 nM | 25 nM
CCC1(C(O)C/C=C/[C@@H]2[C@@H](CCCc3ccc(C(=O)O)s3)CC[C@@H]2C#N)CCC1 (stereo partly shown) [Compound 41] | 129 nM | 1390 nM
CCC1(C(O)CCCC2C(C#N)CCC2CCCc2ccc(C(=O)O)s2)CCC1 (stereo not shown) [Compound 43] | 54 nM | 516 nM
CCC1(C(O)C/C=C/[C@@H]2[C@@H](CCCc3ccc(C(=O)O)s3)CC[C@@H]2Cl)CCC1 (stereo partly shown) [Compound 50] | 117 nM | 1170 nM
CCC1(C(O)CCC[C@@H]2[C@@H](CCCc3ccc(C(=O)O)s3)CC[C@@H]2Cl)CCC1 (stereo partly shown) [Compound 51] | 114 nM | 377 nM

Second part, the molecule after the results:

EC50 (EP2 [1]) | Ki (EP2 [2]) | SMILES
5.4 nM | 86 nM | CCC1(C(O)C/C=C/[C@H]2C(=O)CC[C@@H]2CCCc2ccc(C(=O)O)s2)CCC1 (stereo partly shown) [Compound 12]
6.3 nM | 137 nM | CCC1(C(O)CCC[C@H]2C(=O)CC[C@@H]2CCCc2ccc(C(=O)O)s2)CCC1 (stereo partly shown) [Compound 13]
5.7 nM | 16 nM and 67 nM | CCC1(C(O)C/C=C/[C@@H]2[C@@H](CCCc3ccc(C(=O)O)s3)CC[C@H]2F)CCC1 (stereo partly shown) [Compound 25]
8.5 nM | 15 nM and 47 nM | CCC1(C(O)CCC[C@@H]2[C@@H](CCCc3ccc(C(=O)O)s3)CC[C@H]2F)CCC1 (stereo partly shown) [Compound 27]
11 nM | 40 nM | CCC1(C(O)CCC[C@@H]2[C@@H](CCCc3ccc(C(=O)O)s3)CC[C@H]2Cl)CCC1 (stereo partly shown) [Compound 67]
